How the values were obtained:
wild-type EGFR = target: T1, wild-type EGFR (Homo sapiens, UniProt P00533); experiment: Enzymology experiment in vitro (HTRF/FRET kinase activity), wild-type EGFR; format: biochemical; conditions: HTRF KinEASE-TK, read-out: EGFR (WT) IC50
T1 construct: purchased Signalchem
Procedure, shortened: (§1)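 HTRF KinEASE-TK format: EGFR enzyme preincubated with compound 10 min at room temperature, then peptide substrate plus ATP added for 40 min. Detection with EDTA, XL665-streptavidin and Eu³⁺-labeled antibody for 1 h.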

[1] = target: T2, L858R/T790M/C797S triple mutant EGFR (Homo sapiens, UniProt P00533, C797S/L858R/T790M); experiment: Enzymology experiment in vitro (HTRF/FRET kinase activity), L858R/T790M/C797S triple mutant EGFR; format: biochemical; conditions: HTRF KinEASE-TK, read-out: EGFR (L858R/T790M/C797S) IC50
T2 construct: purchased Signalchem
T2 sequence (P00533 25-1210 T790M/C797S/L858R): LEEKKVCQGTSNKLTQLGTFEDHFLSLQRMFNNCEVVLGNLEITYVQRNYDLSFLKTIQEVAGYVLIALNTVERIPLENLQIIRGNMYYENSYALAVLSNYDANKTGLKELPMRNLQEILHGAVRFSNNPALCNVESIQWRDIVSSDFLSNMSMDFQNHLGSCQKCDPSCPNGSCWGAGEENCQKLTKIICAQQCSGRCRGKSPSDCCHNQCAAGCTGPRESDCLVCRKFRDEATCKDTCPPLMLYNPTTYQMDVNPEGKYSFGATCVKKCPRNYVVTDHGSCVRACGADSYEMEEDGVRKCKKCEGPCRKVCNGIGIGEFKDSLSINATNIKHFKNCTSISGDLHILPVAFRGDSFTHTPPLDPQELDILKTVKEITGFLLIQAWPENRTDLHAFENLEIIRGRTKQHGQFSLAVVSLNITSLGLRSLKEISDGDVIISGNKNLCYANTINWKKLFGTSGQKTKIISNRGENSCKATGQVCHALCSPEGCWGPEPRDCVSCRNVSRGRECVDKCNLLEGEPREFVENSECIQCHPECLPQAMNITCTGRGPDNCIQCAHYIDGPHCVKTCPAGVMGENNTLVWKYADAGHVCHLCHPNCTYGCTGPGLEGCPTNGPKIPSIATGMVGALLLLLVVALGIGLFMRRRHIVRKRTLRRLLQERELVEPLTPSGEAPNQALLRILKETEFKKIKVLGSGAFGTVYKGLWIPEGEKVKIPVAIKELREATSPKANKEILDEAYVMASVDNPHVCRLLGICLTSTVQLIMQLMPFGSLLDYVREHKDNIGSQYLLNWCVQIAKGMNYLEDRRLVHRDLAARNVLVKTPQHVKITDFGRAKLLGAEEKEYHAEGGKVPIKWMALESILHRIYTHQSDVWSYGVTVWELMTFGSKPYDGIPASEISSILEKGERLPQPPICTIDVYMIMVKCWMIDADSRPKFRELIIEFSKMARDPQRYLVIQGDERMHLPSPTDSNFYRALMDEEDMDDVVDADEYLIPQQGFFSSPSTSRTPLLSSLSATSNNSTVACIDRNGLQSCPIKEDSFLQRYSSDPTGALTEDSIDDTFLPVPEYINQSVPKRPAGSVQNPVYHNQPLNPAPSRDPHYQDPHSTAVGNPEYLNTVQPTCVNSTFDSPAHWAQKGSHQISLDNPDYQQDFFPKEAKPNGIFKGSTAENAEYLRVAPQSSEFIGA
Procedure, shortened: as §1

[2] = tested on: EGFR wild-type cell line A431; experiment: Cell proliferation inhibition experiment (CellTiter-Glo), A431; format: cell-based; conditions: Homo sapiens, A-431, 72 h, A431 cells, Cell Titer-Glo, read-out: A431 EGFR WT IC50
Procedure, shortened: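 A431 cells, 800 per well, were cultured 24 h and then exposed to serially diluted compound (0.1% DMSO final) for 72 h at 37° C., 5% CO2.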

[3] = target: Ba/F3 De119/T790M/C797S EGFR triple mutant cell line (Homo sapiens, UniProt P00533, T790M/C797S, cells depend on it, form not given); experiment: Cell proliferation inhibition experiment (CellTiter-Glo), Ba/F3 De119/T790M/C797S; format: cell-based; conditions: Ba/F3 Del19/T790M/C797S EGFR triple mutant cells, 72 hours, Cell Titer-Glo; read-out: Ba/F3 (Del19/T790M/C797S) IC50
Ba/F3 De119/T790M/C797S EGFR triple mutant cell line, sequence (P00533 with tags, fused parts or gaps DEL746-750/T790M/C797S, form open): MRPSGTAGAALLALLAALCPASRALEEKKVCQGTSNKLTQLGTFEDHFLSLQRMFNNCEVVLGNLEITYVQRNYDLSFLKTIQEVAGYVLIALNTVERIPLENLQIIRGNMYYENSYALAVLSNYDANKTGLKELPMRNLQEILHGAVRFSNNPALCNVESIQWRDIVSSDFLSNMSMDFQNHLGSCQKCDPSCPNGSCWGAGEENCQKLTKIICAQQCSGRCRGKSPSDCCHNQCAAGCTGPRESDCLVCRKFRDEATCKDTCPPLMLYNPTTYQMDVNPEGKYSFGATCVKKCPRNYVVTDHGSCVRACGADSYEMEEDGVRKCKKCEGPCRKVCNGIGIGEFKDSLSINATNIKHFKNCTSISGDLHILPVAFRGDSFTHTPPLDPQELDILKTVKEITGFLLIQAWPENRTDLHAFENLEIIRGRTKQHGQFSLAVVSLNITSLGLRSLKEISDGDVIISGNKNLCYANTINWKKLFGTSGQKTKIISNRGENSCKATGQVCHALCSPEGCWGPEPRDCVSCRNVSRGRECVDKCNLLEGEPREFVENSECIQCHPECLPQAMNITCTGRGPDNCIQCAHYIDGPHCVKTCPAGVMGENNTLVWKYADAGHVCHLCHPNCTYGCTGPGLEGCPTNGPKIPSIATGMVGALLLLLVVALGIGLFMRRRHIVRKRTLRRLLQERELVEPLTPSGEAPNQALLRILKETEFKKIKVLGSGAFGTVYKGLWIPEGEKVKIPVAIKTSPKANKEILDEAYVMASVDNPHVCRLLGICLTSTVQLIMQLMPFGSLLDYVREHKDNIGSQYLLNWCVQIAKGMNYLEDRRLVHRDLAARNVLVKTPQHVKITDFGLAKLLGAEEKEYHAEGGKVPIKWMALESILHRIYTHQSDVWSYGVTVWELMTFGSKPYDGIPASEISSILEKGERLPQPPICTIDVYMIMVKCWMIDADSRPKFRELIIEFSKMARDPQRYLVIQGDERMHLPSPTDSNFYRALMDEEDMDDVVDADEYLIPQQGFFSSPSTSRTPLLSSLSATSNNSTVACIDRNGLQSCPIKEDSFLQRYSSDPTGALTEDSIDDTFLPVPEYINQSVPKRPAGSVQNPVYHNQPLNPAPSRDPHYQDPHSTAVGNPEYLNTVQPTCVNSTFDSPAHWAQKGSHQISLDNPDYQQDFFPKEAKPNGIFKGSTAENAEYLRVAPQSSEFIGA

[4] = target: Ba/F3 L858R/T790M/C797S EGFR triple mutant cell line (Homo sapiens, UniProt P00533, T790M/C797S/L858R, cells depend on it); experiment: Cell proliferation inhibition experiment (CellTiter-Glo), Ba/F3 L858R/T790M/C797S; format: cell-based; conditions: 72 hours, Cell Titer-Glo, read-out: Ba/F3 (L858R/T790M/C797S) IC50
Ba/F3 L858R/T790M/C797S EGFR triple mutant cell line, sequence (P00533 whole entry T790M/C797S/L858R): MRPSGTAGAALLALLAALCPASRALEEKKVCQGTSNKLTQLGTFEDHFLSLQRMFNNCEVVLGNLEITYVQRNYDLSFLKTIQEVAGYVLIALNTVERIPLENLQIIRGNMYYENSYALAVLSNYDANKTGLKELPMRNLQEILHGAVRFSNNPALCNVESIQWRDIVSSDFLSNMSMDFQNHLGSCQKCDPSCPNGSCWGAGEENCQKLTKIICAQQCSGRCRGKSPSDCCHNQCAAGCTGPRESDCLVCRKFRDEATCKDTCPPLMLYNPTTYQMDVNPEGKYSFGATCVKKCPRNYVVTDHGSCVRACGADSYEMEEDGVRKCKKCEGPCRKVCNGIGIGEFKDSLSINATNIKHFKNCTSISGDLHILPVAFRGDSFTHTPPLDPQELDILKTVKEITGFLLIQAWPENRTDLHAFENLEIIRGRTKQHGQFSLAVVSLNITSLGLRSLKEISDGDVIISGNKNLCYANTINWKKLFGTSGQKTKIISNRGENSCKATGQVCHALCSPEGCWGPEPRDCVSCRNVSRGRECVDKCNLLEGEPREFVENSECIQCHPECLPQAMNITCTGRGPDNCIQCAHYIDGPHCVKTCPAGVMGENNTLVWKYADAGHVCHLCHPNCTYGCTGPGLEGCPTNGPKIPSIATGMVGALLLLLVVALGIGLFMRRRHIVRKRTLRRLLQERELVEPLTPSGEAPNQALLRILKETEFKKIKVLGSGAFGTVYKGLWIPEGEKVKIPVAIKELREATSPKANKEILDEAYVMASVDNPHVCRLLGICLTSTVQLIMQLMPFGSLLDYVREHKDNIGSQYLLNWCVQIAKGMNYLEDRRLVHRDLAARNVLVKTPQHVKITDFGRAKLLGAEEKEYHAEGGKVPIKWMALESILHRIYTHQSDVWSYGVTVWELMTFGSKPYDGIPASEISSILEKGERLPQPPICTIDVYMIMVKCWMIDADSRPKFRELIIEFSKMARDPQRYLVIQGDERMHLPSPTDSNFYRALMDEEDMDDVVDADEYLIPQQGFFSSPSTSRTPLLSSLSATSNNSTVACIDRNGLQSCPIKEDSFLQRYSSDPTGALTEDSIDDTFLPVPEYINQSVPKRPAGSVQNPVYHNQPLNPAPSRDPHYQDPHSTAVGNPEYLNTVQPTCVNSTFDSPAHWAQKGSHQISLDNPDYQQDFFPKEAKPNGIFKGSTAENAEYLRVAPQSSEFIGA

T1 sequence (P00533 25-1210): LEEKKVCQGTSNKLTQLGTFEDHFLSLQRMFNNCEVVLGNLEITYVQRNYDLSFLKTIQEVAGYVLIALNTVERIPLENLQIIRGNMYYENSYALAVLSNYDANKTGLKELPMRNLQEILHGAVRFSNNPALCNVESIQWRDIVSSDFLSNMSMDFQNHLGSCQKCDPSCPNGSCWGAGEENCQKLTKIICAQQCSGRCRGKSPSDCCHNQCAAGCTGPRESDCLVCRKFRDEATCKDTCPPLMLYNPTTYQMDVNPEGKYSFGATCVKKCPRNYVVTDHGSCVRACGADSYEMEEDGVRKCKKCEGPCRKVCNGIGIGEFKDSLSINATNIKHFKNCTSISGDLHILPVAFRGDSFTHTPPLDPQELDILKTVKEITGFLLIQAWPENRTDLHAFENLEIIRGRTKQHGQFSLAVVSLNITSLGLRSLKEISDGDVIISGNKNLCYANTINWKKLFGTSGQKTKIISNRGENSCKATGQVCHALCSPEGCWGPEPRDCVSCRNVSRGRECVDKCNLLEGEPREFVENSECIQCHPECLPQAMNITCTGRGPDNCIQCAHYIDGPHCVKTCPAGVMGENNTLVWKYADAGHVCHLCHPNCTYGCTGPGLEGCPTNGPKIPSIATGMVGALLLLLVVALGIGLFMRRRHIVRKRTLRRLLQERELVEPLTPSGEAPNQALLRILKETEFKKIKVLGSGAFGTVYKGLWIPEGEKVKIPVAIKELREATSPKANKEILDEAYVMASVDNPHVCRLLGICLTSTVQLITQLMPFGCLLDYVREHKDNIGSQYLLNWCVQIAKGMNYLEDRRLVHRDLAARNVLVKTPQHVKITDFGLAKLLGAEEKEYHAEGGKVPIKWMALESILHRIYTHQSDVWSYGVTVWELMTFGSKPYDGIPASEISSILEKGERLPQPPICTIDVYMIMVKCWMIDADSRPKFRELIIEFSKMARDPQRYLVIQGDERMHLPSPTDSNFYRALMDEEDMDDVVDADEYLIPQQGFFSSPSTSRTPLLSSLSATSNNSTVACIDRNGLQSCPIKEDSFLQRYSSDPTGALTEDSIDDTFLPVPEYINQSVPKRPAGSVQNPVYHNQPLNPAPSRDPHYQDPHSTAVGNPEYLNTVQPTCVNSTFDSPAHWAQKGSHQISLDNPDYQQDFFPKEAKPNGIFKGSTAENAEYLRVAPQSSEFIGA

IC50 (wild-type EGFR) [nM] | IC50 [1] [nM] | IC50 [2] [nM] | GI50 [3] [nM] | GI50 [4] [nM] | Compound
345 | 15.6 | 3060 | 87.8 | 136 | COc1cc(N2CCOCC2)c(-c2ccsc2)cc1Nc1ncc(Br)c(Nc2ccc3nccnc3c2P(C)(C)=O)n1 [compound 86]
2.11 | 0.11 | 40.9 | 2.33 | 4.16 | CCN1CCN(c2cc(OC)c(Nc3ncc(Br)c(Nc4ccc5nccnc5c4P(C)(C)=O)n3)cc2-c2cnn(C)c2)CC1 [compound 89]
2.34 | 0.03 | 31.8 | 0.54 | 2.85 | COCCN1CCN(c2cc(OC)c(Nc3ncc(Br)c(Nc4ccc5nccnc5c4P(C)(C)=O)n3)cc2-c2cnn(C)c2)CC1 [compound 92]
23.1 | 0.18 | 178 | 12.5 | 27 | COc1c(Nc2ncc(Br)c(Nc3ccc4nccnc4c3P(C)(C)=O)n2)cc(-c2cnn(C)c2)c(N2CCC(N3CCN(C)CC3)CC2)c1F [compound 93]
2.78 | 0.15 | 168 | 6.99 | 28.8 | COc1cc(N2CCS(=O)(=O)CC2)c(-c2cnn(C)c2)cc1Nc1ncc(Br)c(Nc2ccc3nccnc3c2P(C)(C)=O)n1 [compound 94]
16.2 | 0.82 | 177 | 11 | 27.8 | COc1cc(N2CCC(N3CCN(C)CC3)CC2)c(-c2cscn2)cc1Nc1ncc(Br)c(Nc2ccc3nccnc3c2P(C)(C)=O)n1 [compound 98]
0.41 | 0.18 | 46.1 | 2.87 | 4.53 | COc1cc(N2CCC3(CCN(C)CC3)CC2)c(-c2cnn(C)c2)cc1Nc1ncc(Br)c(Nc2ccc3nccnc3c2P(C)(C)=O)n1 [compound 101]
1.49 | 0.23 | 108 | 0.76 | 2.02 | COc1cc(N2CCN(C3CC3)CC2)c(-c2cnn(C)c2)cc1Nc1ncc(Br)c(Nc2ccc3nccnc3c2P(C)(C)=O)n1 [compound 102]
1.57 | 0.13 | 152 | 0.51 | 5.02 | COc1cc(N2CCN(CCF)CC2)c(-c2cnn(C)c2)cc1Nc1ncc(Br)c(Nc2ccc3nccnc3c2P(C)(C)=O)n1 [compound 103]
1.54 | 0.57 | 162 | 3.7 | 10.9 | COc1cc(N2CCN(S(C)(=O)=O)CC2)c(-c2cnn(C)c2)cc1Nc1ncc(Br)c(Nc2ccc3nccnc3c2P(C)(C)=O)n1 [compound 110]
0.92 | 0.26 | 1100 | 57 | 161 | COc1cc(N2CCN(C(N)=O)CC2)c(-c2cnn(C)c2)cc1Nc1ncc(Br)c(Nc2ccc3nccnc3c2P(C)(C)=O)n1 [compound 112]
3.13 | 1.31 | 169 | 2.25 | 8.15 | COc1cc(N2CCN(C(=O)C3CC3)CC2)c(-c2cnn(C)c2)cc1Nc1ncc(Br)c(Nc2ccc3nccnc3c2P(C)(C)=O)n1 [compound 116]
4.07 | 1.3 | 639 | 36.6 | 239 | COc1cc(N2CCC(N3CCN(C)CC3)CC2)c(-c2cnn(C)c2)cc1Nc1ncc(F)c(Nc2ccc3nccnc3c2P(C)(C)=O)n1 [compound 119]

More lines, now with the values behind:

Compound | IC50 (wild-type EGFR) [nM] | IC50 [1] [nM] | IC50 [2] [nM] | GI50 [3] [nM] | GI50 [4] [nM]
Cc1nc(N2CCOCC2)c(-c2cnn(C)c2)cc1Nc1ncc(Br)c(Nc2ccc3nccnc3c2P(C)(C)=O)n1 [compound 38] | 17.8 | 0.23 | 295 | 10.2 | 32.6
Cn1cc(-c2cc3c(c(Nc4ncc(Br)c(Nc5ccc6nccnc6c5P(C)(C)=O)n4)c2)OCC3)cn1 [compound 39] | 7.45 | 0.06 | 41.3 | 4.07 | 9.69
COc1cc(C(=O)N(C)C)c(-c2cnn(C)c2)cc1Nc1ncc(Br)c(Nc2ccc3nccnc3c2P(C)(C)=O)n1 [compound 40] | 55.3 | 2.85 | 1180 | 1130 | 542
COc1cc(N2CCOCC2)c(-c2cn(C)nc2C)cc1Nc1ncc(Br)c(Nc2ccc3nccnc3c2P(C)(C)=O)n1 [compound 43] | 95.3 | 0.47 | 880 | 16.4 | 29.7
COc1cc(N2CCOCC2)c(-c2cnn(C)c2)nc1Nc1ncc(C)c(Nc2ccc3nccnc3c2P(C)(C)=O)n1 [compound 71] | 38.9 | 1.7 | > 10000 | 99.4 | 316
COc1cc(N2CCOCC2)c(-c2cnn(C)c2)cc1Nc1ncc(Cl)c(Nc2ccc3nccnc3c2P(C)(C)=O)n1 [compound 72] | 4.69 | 0.2 | 370 | 4.54 | 13.5
COc1cc(C23CCOCC2C3)c(-c2cnn(C)c2)cc1Nc1ncc(Br)c(Nc2ccc3nccnc3c2P(C)(C)=O)n1 (centres unmarked) [compound 77] | 114 | 1.24 | 480 | 14.4 | 26.4
COc1cc(N2CCOCC2)c(-c2cnn(C(F)F)c2)cc1Nc1ncc(Br)c(Nc2ccc3nccnc3c2P(C)(C)=O)n1 [compound 78] | 45.5 | 0.53 | 550 | 6.76 | 14.4
COc1cc(N2CCOCC2)c(-c2cnn(C)c2)cc1Nc1ncc(F)c(Nc2ccc3nccnc3c2P(C)(C)=O)n1 [compound 81] | 7.68 | 0.34 | ≥ 10000 | 19.1 | 32.4
COc1cc(N2CCOCC2)c(-c2cccs2)cc1Nc1ncc(Br)c(Nc2ccc3nccnc3c2P(C)(C)=O)n1 [compound 83] | 1000 | 3.95 | 2420 | 34 | 58.9
COc1cc(F)c(-c2cnn(C)c2)cc1Nc1ncc(Br)c(Nc2ccc3nccnc3c2P(C)(C)=O)n1 [compound 84] | 16.6 | 0.33 | 392 | 12.5 | 20.7
COc1cc(N2CCOCC2)c(-c2cnn(C)c2)cc1Nc1ncc(Br)c(Nc2ccc3c(c2P(C)(C)=O)CC3)n1 [compound 85] | 9.06 | 0.11 | 381 | 6.15 | 9.29
CN1CCC2(CC1)CCN(c1nc(OCC(F)(F)F)c(Nc3ncc(Br)c(Nc4ccc5nccnc5c4P(C)(C)=O)n3)cc1-c1cnn(C)c1)CC2 [compound 87] | 3.47 | 0.35 | 178 | 5.89 | 14.2
COc1cc(N2CCOCC2)c(-c2cn[nH]c2)cc1Nc1ncc(C)c(Nc2ccc3nccnc3c2P(C)(C)=O)n1 [compound 97] | 1.02 | 0.15 | 406 | 6.64 | 25.5
COc1cc(N2CCOC[C@H]2C)c(-c2cnn(C)c2)cc1Nc1ncc(Br)c(Nc2ccc3nccnc3c2P(C)(C)=O)n1 [compound 104] | 27.2 | 0.95 | 192 | 4.07 | 17.7
COc1cc(N2CCNC(=O)C2)c(-c2cnn(C)c2)cc1Nc1ncc(Br)c(Nc2ccc3nccnc3c2P(C)(C)=O)n1 [compound 105] | 5.62 | 0.16 | 1190 | 20.9 | 61.9
COc1cc(N2C[C@@H]3C[C@H]2CO3)c(-c2cnn(C)c2)cc1Nc1ncc(Br)c(Nc2ccc3nccnc3c2P(C)(C)=O)n1 [compound 107] | 26.4 | 1.3 | 380 | 11.2 | 30.9
COc1cc(N2C[C@@H](C)O[C@@H](C)C2)c(-c2cnn(C)c2)cc1Nc1ncc(Br)c(Nc2ccc3nccnc3c2P(C)(C)=O)n1 [compound 111] | 5.65 | 1.38 | 210 | 3.22 | 4.79
COc1cc(N2C[C@H]3C[C@@H]2CO3)c(-c2cnn(C)c2)cc1Nc1ncc(Br)c(Nc2ccc3nccnc3c2P(C)(C)=O)n1 [compound 114] | 5.41 | 0.56 | 271 | 5.86 | 11.2
COc1cc(N2CCOC(CO)C2)c(-c2cnn(C)c2)cc1Nc1ncc(Br)c(Nc2ccc3nccnc3c2P(C)(C)=O)n1 (centres unmarked) [compound 115] | 1.65 | 0.4 | 159 | 6.53 | 16.1
COc1cc(N2CCOC(C)(C)C2)c(-c2cnn(C)c2)cc1Nc1ncc(Br)c(Nc2ccc3nccnc3c2P(C)(C)=O)n1 [compound 120] | 9.84 | 1.17 | 197 | 2.62 | 8.67

Reference: patent US20230219986A1, “NOVEL AMINOPYRIMIDINE EGFR INHIBITOR” (QILU PHARMACEUTICAL CO., LTD., priority 2020, published 2023)
